Patent US20020045574A1, “Glycopeptide antibacterial compounds and methods of using same” (priority 2000, published 2002)

What was measured:
[1] = system: methicillin-sensitive Staphylococcus aureus (MSSA) strain MB2985; conditions: due to binding of the antibiotic; cited from earlier work
VISA/MRSA CL 5706 = assay: Strain antibiotic susceptibility phenotype (MIC interpretive standards); assay type: cell-based, S. aureus; conditions: VISA/MRSA CL 5706 (Mu 50)
Description: (§1) The test panel currently includes eight enterococci and 13 staphylococci, which are selected based upon their antibiotic susceptibility profiles. The methicillin-sensitive Staphylococcus aureus (MSSA) strain MB2985 (Smith isolate) is used to assesses the potential for serum protein binding of the compounds. The paired Gram-negative strains ASP #49 (envA−) and ASP #50 (envA+) (M. Salvatore/N. Lee) are included to judge membrane effects. Table 1 presents a detailed description of the strains included in the panel, including some of the sources of the strains of bacteria.

VISA/MRSA CL 5705 = assay: as above; assay type: cell-based, S. aureus; conditions: VISA/MRSA CL 5705 (Mu 3)
Description: as §1

MRCNS (S. haem.) CL 202 = assay: as above; assay type: cell-based
Description: as §1

MRCNS (S. haem.) CL 171 = assay: as above; assay type: cell-based
Description: as §1

MRCNS (S. hom.) CL 546 = assay: as above; assay type: cell-based
Description: as §1

MRCNS (S. epi.) CL 3069 = assay: as above; assay type: cell-based
Description: as §1

MRCNS (S. hom.) CL 227 = assay: as above; assay type: cell-based
Description: as §1

MRSA CL 3033 = assay: as above; assay type: cell-based, Staphylococcus aureus
Description: as §1

MRSA COL = assay: as above; assay type: cell-based, Staphylococcus aureus
Description: as §1

MSSA MB2985 = assay: as above; assay type: cell-based, Staphylococcus aureus
Description: as §1

[2] = system: E. gallinarum CL 4886 (VanC); assay: as above; assay type: cell-based
Description: as §1

[3] = system: E. faecium CL 5242 (VanA); assay: as above; assay type: cell-based
Description: as §1

E. faecium RLA1 = assay: as above; assay type: cell-based
Description: as §1

[4] = system: E. faecalis CL 4877 (VanB); assay: as above; assay type: cell-based
Description: as §1

[5] = system: E. faecium CL 4931 (VanA); assay: as above; assay type: cell-based
Description: as §1

[6] = system: E. faecalis CL 5244 (VanB); assay: as above; assay type: cell-based
Description: as §1

[7] = system: E. faecium CL 5053 (VanA); assay: as above; assay type: cell-based
Description: as §1

E. faecalis MB2864 = assay: as above; assay type: cell-based
Description: as §1

Compound: CCSC1=C(C(=O)O)N2C(=O)[C@H]([C@@H](C)O)[C@H]2S1 [Schering 29482]
- activity in the presence of Human Serum Albumin or Fraction V [1]: reduced activity

Compound: C[C@@H](O)[C@H]1C(=O)N2C(C(=O)O)=C(SCCN=CN)C[C@H]12 [Ipm, imipenem]
- Phenotype Ipm (VISA/MRSA CL 5706): R (≧16)
- Phenotype Ipm (VISA/MRSA CL 5705): R (≧16)
- Phenotype Ipm (MRCNS (S. haem.) CL 202): R (≧16)
- Phenotype Ipm (MRCNS (S. haem.) CL 171): R (≧16)
- Phenotype Ipm (MRCNS (S. hom.) CL 546): R (≧16)
- Phenotype Ipm (MRCNS (S. epi.) CL 3069): R (≧16)
- Phenotype Ipm (MRCNS (S. hom.) CL 227): R (≧16)
- Phenotype Ipm (MRSA CL 3033): R (≧16)
- Phenotype Ipm (MRSA COL): R (≧16)
- Phenotype Ipm (MSSA MB2985): S (≦4)

Compound: CN[C@H](CC(C)C)C(=O)N[C@H]1C(=O)N[C@@H](CC(N)=O)C(=O)N[C@H]2C(=O)N[C@H]3C(=O)N[C@H](C(=O)N[C@H](C(=O)O)c4cc(O)cc(O)c4-c4cc3ccc4O)[C@H](O)c3ccc(c(Cl)c3)Oc3cc2cc(c3O[C@@H]2O[C@H](CO)[C@@H](O)[C@H](O)[C@H]2O[C@H]2C[C@](C)(N)[C@H](O)[C@H](C)O2)Oc2ccc(cc2Cl)[C@H]1O [Van, vancomycin]
- Phenotype Van (VISA/MRSA CL 5706): I (8-16)
- Phenotype Van (VISA/MRSA CL 5705): S (≦4)
- Phenotype Van [2]: I (8-16)
- Phenotype Van [3]: R (≧32)
- Phenotype Van (MRCNS (S. haem.) CL 202): S (≦4)
- Phenotype Van (MRCNS (S. haem.) CL 171): S (≦4)
- Phenotype Van (E. faecium RLA1): S (≦4)
- Phenotype Van [4]: R (≧32)
- Phenotype Van [5]: R (≧32)
- Phenotype Van [6]: R (≧32)
- Phenotype Van (MRCNS (S. hom.) CL 546): S (≦4)
- Phenotype Van (MRCNS (S. epi.) CL 3069): S (≦4)
- Phenotype Van [7]: R (≧32)
- Phenotype Van (MRCNS (S. hom.) CL 227): S (≦4)
- Phenotype Van (E. faecalis MB2864): S (≦4)
- Phenotype Van (MRSA CL 3033): S (≦4)
- Phenotype Van (MRSA COL): S (≦4)
- Phenotype Van (MSSA MB2985): S (≦4)

Compound: gentamicin
- Phenotype Gent (VISA/MRSA CL 5706): R (≧16)
- Phenotype Gent (VISA/MRSA CL 5705): R (≧16)
- Phenotype Gent [2]: R (>500)
- Phenotype Gent [3]: R (>500)
- Phenotype Gent (E. faecium RLA1): S (≦500)
- Phenotype Gent [4]: R (>500)
- Phenotype Gent [5]: R (>500)
- Phenotype Gent [6]: S (≦500)
- Phenotype Gent [7]: R (>500)
- Phenotype Gent (E. faecalis MB2864): S (≦500)
- Phenotype Gent (MRSA COL): S (≦4)
- Phenotype Gent (MSSA MB2985): S (≦4)

Compound: CC1(C)S[C@@H]2[C@H](NC(=O)[C@H](N)c3ccccc3)C(=O)N2[C@H]1C(=O)O [Amp, ampicillin]
- Phenotype Amp (VISA/MRSA CL 5706): R (≧0.5)
- Phenotype Amp (VISA/MRSA CL 5705): R (≧0.5)
- Phenotype Amp [2]: S (≦8)
- Phenotype Amp [3]: R (≧16)
- Phenotype Amp (E. faecium RLA1): R (≧16)
- Phenotype Amp [4]: S (≦8)
- Phenotype Amp [5]: R (≧16)
- Phenotype Amp [6]: S (≦8)
- Phenotype Amp [7]: R (≧16)
- Phenotype Amp (E. faecalis MB2864): S (≦8)
- Phenotype Amp (MRSA CL 3033): R (≧0.5)
- Phenotype Amp (MRSA COL): R (≧0.5)
- Phenotype Amp (MSSA MB2985): S (≦0.25)
